Source: article PMC11087268, “A folate inhibitor exploits metabolic differences in Pseudomonas aeruginosa for narrow-spectrum targeting” (Nature Microbiology, 2024)
In brackets after ≈: the same amount, converted by molar mass. Several values for one entry are separate records, joined by “and”; a condition that tells them apart may be missing. Equal entries are not always repeated. Where two headings read alike, the source gives them in different places.

Legend:
[1] = test system: Pseudomonas aeruginosa ATTC 27853; assay: MIC against P. aeruginosa ATTC 27853 in LB broth; assay type: cell-based; details: ATTC27853, 16 h
Method: Overnight cultures were diluted 1:150 in LB broth and added to a 96-well plate. Antibiotics were serially diluted 1:2 and added to columns of the 96-well plate and grown at 37 °C with continuous shaking. Cell growth was measured using optical density at 600 nm (OD600). MIC assays were performed in either BioTek Synergy HT or Tecan InfiniteM200 Pro microplate readers.

[2] = test system: Enterococcus faecalis ATCC 51575; assay: MIC (WuXi, Mueller–Hinton broth) against E. faecalis; assay type: cell-based; details: ATCC51575
Method: (§1) Bacterial colonies (4–8) of strains of interest were vortexed in saline and adjusted to an OD600 of 0.2. Strains were diluted 1:200 into CAMHB media in 96-well plates. Antibiotics were serially diluted 1:3 in DMSO, and 1 μl of each dilution was added to bacteria. The plates were incubated for 18–20 h at 37 °C before observation.

[3] = test system: Acinetobacter baumannii ATCC 17978; assay: MIC (WuXi, Mueller–Hinton broth) against A. baumannii ATCC 17978; assay type: cell-based; details: ATCC17978, performed by WuXi
Method: as §1

[4] = test system: P. aeruginosa PA14 folate metabolism (dUMP, AICAR, GAR); assay: Metabolomics (LC–MS) of treated PA14; assay type: cell-based, Pseudomonas aeruginosa; details: PA14, 15 min
Method: Metabolites were extracted by vacuum filtering 15 ml of treated cells using 0.45 μm HNWP Millipore nylon membranes and placing the filters into an ice-cold quenching solution of 40:40:20 methanol:acetonitrile:H2O. Extracts were kept on dry ice for 1 h and centrifuged at 16,000 g for 1 h at 4 °C. The supernatant was kept at -80 °C until mass spectrometry analysis. Liquid chromatography-mass spectrometry (LC-MS) analysis of metabolites was performed on an Orbitrap Exploris 240 mass spectrometer coupled with hydrophilic interaction liquid chromatography (HILIC)[68]. […] Waters 196006724), with a gradient of solvent A (95 vol. % H2O, 5 vol. % acetonitrile, with 20 mM ammonium acetate and 20 mM ammonium hydroxide, pH 9.4) and solvent B (acetonitrile). Flow rate was 0.15 ml min^-1 and column temperature was set at 25 °C. […] Raw mass spectrometry data were converted to mzXML format by MSConvert (ProteoWizard). Pick-peaking was done on […].0.8.0, Elucidata).

[5] = Pharmacokinetic analysis after single oral dose; assay type: in vivo, mouse
Method: For pharmacokinetics determination, care and handling of male CD-1 mice approximately 6–8 weeks old conformed to institutional animal care and use policies as carried out at Pharmaron.
Pharmacokinetic properties were determined after a single dose of 200 mg kg^−1 fluorofolin given orally (PO). Plasma samples were taken from three mice at times 0.083, 0.25, 0.5, 1, 2, 4, 8 and 24 h, and quantitative analysis was performed using LC–MS/MS. Half-life was determined from plasma concentration after fluorofolin levels reached pseudo-equilibrium (4 h for mouse 1 and 2, and 2 h for mouse 3). Pharmacokinetic values were estimated using a non-compartmental model generated from WinNonlin 6.1. Pharmacokinetic analysis was carried out by Pharmaron.

[6] = Maximum tolerated dose; details: female, mouse, in vivo, sc; CD-1 mice, subcutaneous
Text: For P. aeruginosa thigh infection model and maximum tolerated dose (MTD) studies, care and handling of female 5–6-week-old CD-1 conformed to Institutional Animal Care and Use Committee (IACUC) policies as carried out at the University of North Texas Health Science Center (Fort Worth, Texas) under UNTHSC IACUC-approved protocol nos. IACUC-2021-0003 and IACUC-2020-0039. Rodents were fed either base chow (Envigo) or base diet supplemented with 1.8 g kg^−1 thymidine (Sigma T9250) starting at 2 days before infection. All procedures were conducted in accordance with the UNTHSC IACUC-approved protocol. Animals were housed in rooms undergoing 10–15 air changes per hour. Air provided to the animal rooms was controlled for temperature and humidity and is fully monitored 24 h a day. Air pressure was balanced according to room use. Lighting was controlled in individual rooms by automatic timers with a standard 12 h on, 12 h off cycle.
MTD was determined by administration of compounds at increasing dosage until the maximum dose before adverse reactions were observed. Doses were increased in a stepwise manner from 1 mg kg^−1 to 5, 10, 25 and 50 mg kg^−1. […] The maximum tolerated dose of fluorofolin was determined to be 25 mg kg^−1 administered subcutaneously. MTD was evaluated by the UNTHSC.

[7] = test system: P. aeruginosa PA14; assay: Growth competition assay, c.f.u. of P. aeruginosa PA14; assay type: cell-based, Pseudomonas aeruginosa
Method: Cultures of each species were grown separately as well as being mixed 1:1. […] The number of colonies on Pseudomonas Selection Agar plates is reported as the c.f.u. ml^−1 of P. aeruginosa. To calculate c.f.u.s ml^−1 of E. coli MG1655, c.f.u.s ml^−1 were determined from LB agar plates and the c.f.u.s ml^−1 of P. aeruginosa were subtracted from these values.

[8] = test system: P. aeruginosa PA14; assay type: cell-based, Pseudomonas aeruginosa; details: PA14, 4× MIC plates
[9] = test system: P. aeruginosa clinical isolates; assay type: cell-based, Pseudomonas aeruginosa
Method: Percent growth was calculated by dividing the OD600 of fluorofolin antibiotic-treated wells by that of vehicle-only wells.

[10] = 2× MIC (fluorofolin 6.3, TMP 250 μg ml^−1), one value per replicate
[11] = CD-1 mice, 200 mg/kg PO, mean of three mice
[12] = male, mouse, plasma, CD-1 mice, 200 mg/kg PO, mean of three mice

Compound Nc1nc(N)c2c(ccc3c2ccn3Cc2ccnc(F)c2)n1 [fluorofolin] has an MIC [1] of 25 µg/mL, an MIC [2] of 0.01 µg/mL (≈ 0.0324 µM) and an MIC [3] of 0.8 µg/mL (≈ 2.59 µM). For the same compound, the “change of AICAR and dUMP” value ([4]; 2× MIC) was “significant upregulation”, the “Normalized Ion Counts AICAR” value [4, 10] was 667209 and 798823 and 294672 and the “Normalized Ion Counts GAR” value [4, 10] was 62925.5 and 135659 and 3851.78. For the same compound, the “Normalized Ion Counts dUMP” value [4, 10] was 5000000 and 3000000 and 2000000, the plasma concentration ([5]; 0.083 h after 200 mg kg^−1 PO, one value per mouse) was 1290 ng/mL and 1470 ng/mL and the plasma concentration ([5]; 0.25 h after 200 mg kg^−1 PO, one value per mouse) was 2880 ng/mL and 2500 ng/mL. The plasma concentration ([5]; 0.5 h after 200 mg kg^−1 PO, one value per mouse) was 3070 ng/mL and 2970 ng/mL, the plasma concentration ([5]; 1 h after 200 mg kg^−1 PO, one value per mouse) was 3980 ng/mL and 3260 ng/mL and the plasma concentration ([5]; 2 h after 200 mg kg^−1 PO, one value per mouse) was 4080 ng/mL and 3760 ng/mL. The plasma concentration ([5]; 4 h after 200 mg kg^−1 PO, one value per mouse) was 4460 ng/mL and 3060 ng/mL, the plasma concentration ([5]; 8 h after 200 mg kg^−1 PO, one value per mouse) was 2580 ng/mL and 1400 ng/mL and the plasma concentration ([5]; 24 h after 200 mg kg^−1 PO, one value per mouse) was 430 ng/mL and 287 ng/mL and 1740 ng/mL. The “AUC_% Extrap_obs” value [5, 11] was 23.3970%, the AUC_last/D [5, 11] was 231.6700 h*ng/mL per mg/kg and the T1/2 ([5]; CD-1 mice, 200 mg/kg PO, mean of three mice, 200 mg/kg) was 12.1050 h. The concentration at 0.083 h ([5]; male, CD-1, mouse, plasma, po, 200 mg kg^−1, 0.083 h after 200 mg kg^−1 PO, one value per mouse) was 880 ng/mL, the concentration at 0.25 h ([5]; male, CD-1, mouse, plasma, po, 200 mg kg^−1, 0.25 h after 200 mg kg^−1 PO, one value per mouse) was 2220 ng/mL and the concentration at 0.5 h ([5]; male, CD-1, mouse, plasma, po, 200 mg kg^−1, 0.5 h after 200 mg kg^−1 PO, one value per mouse) was 2810 ng/mL. The concentration at 1 h ([5]; male, CD-1, mouse, plasma, po, 200 mg kg^−1, 1 h after 200 mg kg^−1 PO, one value per mouse) was 2930 ng/mL, the concentration at 2 h ([5]; male, CD-1, mouse, plasma, po, 200 mg kg^−1, 2 h after 200 mg kg^−1 PO, one value per mouse) was 3640 ng/mL and the concentration at 4 h ([5]; male, CD-1, mouse, plasma, po, 200 mg kg^−1, 4 h after 200 mg kg^−1 PO, one value per mouse) was 3460 ng/mL. The concentration at 8 h ([5]; male, CD-1, mouse, plasma, po, 200 mg kg^−1, 8 h after 200 mg kg^−1 PO, one value per mouse) was 1640 ng/mL, the half-life ([5]; male, CD-1, mouse, plasma, po, 200 mg/kg, CD-1 mice, 200 mg/kg PO, mean of three mice) was 12.1 h and the AUC(0-inf) [5, 12] was 68800 ng·h/mL. The AUC(0-t) [5, 12] was 46300 ng·h/mL, the Cmax [5, 12] was 3950 ng/mL and the Tmax [5, 12] was 2.67 h. It also gave an MRT inf ([5]; male, mouse, plasma, CD-1 mice, 200 mg/kg PO, mean of three mice, read-out: MRT_Inf_obs) of 18.2 h, a peak concentration ([5]; mice, oral administration) of 4.0 µg/mL and an MTD [6] of 25 mg/kg. For the same compound, the “growth in co-culture with TMI supplementation” value ([7]; PA14 : E. coli MG1655 1:1, 50 μg ml^−1 fluorofolin, selective plating) was “selectively inhibited the growth of P. aeruginosa”, the “P. Aeruginosa PA14 CFU/mL” value ([7]; Panel C, Fluorofolin) was 39 CFU/mL and 46 CFU/mL and 40 CFU/mL and the “resistance frequency compared between antibiotics” value [8] was “significantly lower resistance frequency than meropenem”. The isolates inhibited [9] was 90%, the “number of isolates inhibited” value [9] was 69 and the “sensitivity of isolates with dfrB2” value [9] was “fluorofolin-sensitive”. For the same compound, the “number of resistant isolates” value ([9]; 22 blood isolates, 50 μg ml^−1) was “None”, the “number of resistant isolates” value ([9]; 55 CDC isolates, 50 μg ml^−1) was 8 and the clinical isolates resistant ([9]; 77 P. aeruginosa clinical isolates (55 CDC/FDA, 22 blood), 50 μg ml^−1, growth inhibition >80% = sensitive) was 10.4%. For the same compound, the “sensitivity of carbapenemase isolates” value ([9]; clinical isolates expressing KPC-5 and NDM-1) was “remained sensitive” and the clinical isolates resistant ([9]; earlier manuscript version quoted by reviewers, antibiotic resistance isolate bank only) was 14.5%.
